From patent US20230285405A1, “Pharmaceuticals for Treating or Preventing Nidoviruses and Picornaviruses” (priority 2020, published 2023) come the findings set out here.

Structures can show the parent of a compound that is named as a salt. Where two headings read alike, the source gives them in different places.

In one data set the test system is OC43. Nature of the data set: Drug screening: OC43 nucleoprotein staining in infected A549-mRuby cells. Conditions: for activity at 10 µM: Betacoronavirus 1, OC43, 96 h. It is filed as cell-based, human beta coronavirus OC43. The method, boiled down: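 Repurposing screen: drugs at 10 μM final added 1 h after OC43 infection (MOI 0.3) of H2B-mRuby A549 cells, 4-day incubation at 33° C. Cell counts imaged at day 0 and day 4; nucleoprotein staining per cell normalized to untreated infected wells, hit threshold >3 SD in duplicate screens, non-toxic.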

A further data set deals with A549-mRuby cells. Nature of the data set: Drug screening: effect on cell growth (cell number day 4 / day 0). Conditions: 10 μM drug; for Growth_1: number of cells at day 4 divided by number of cells at day 0 / toxic_1: repeat #1; for Growth_2: number of cells at day 4 divided by number of cells at day 0 / toxic_2: repeat #2. In a few lines: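 Growth was scored as day 4/day 0 cell count from images of OC43-infected (MOI 0.3) A549-mRuby nuclear-reporter cells. Compounds were added at 10 μM final after a 1 h infection at 33° C, followed by 4 days of culture at 33° C in two independent screens.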

Setting [1] is: 10 μM drug, MOI 0.3, 4 days, OC43 staining normalized to no-drug controls, mean of the two screen repeats, read-out: OC43_mean.
Where [2] appears, read: 10 μM drug, MOI 0.3, 4 days, normalized to no-drug controls in the same plate, repeat #1, read-out: OC43_1: % staining of OC43 in screen repeat #1.
The mark [3] stands for this setting: 10 μM drug, MOI 0.3, 4 days, normalized to no-drug controls in the same plate, repeat #2, read-out: OC43_2: % staining of OC43 in screen repeat #2.
Where [4] appears, read: 10 μM drug, MOI 0.3, 4 days, normalized to no-drug controls in the same plate, repeat #1.
Setting [5] is: 10 μM drug, MOI 0.3, 4 days, normalized to no-drug controls in the same plate, repeat #2.

Take `COc1cc2nc(N3CCN(C(=O)C4COc5ccccc5O4)CC3)nc(N)c2cc1OC` (stereo not shown) [Doxazosin Mesylate]: the hit_1 in the data set with OC43 (10 μM drug, repeat #1) turned out to be 1. The molecule also registered a hit_2 in the data set on OC43 (10 μM drug, repeat #2) of 1. Moreover, the activity at 10 µM in the data set with OC43 (setting [1]) turned out to be 29.7%. The activity at 10 µM with OC43 (setting [2]) worked out at 50.1%. The activity at 10 µM with OC43 (setting [3]) was determined as 9.2%. For the same molecule, in the data set on A549-mRuby cells, the “Growth_1: number of cells at day 4 divided by number of cells at day 0” value came to 5.2, the toxic_1 is 0, the “Growth_2: number of cells at day 4 divided by number of cells at day 0” value was found to be 4.9 and the toxic_2 is 0.
In turn, `COc1ccccc1OCCNCC(O)COc1cccc2[nH]c3ccccc3c12` (stereo not shown) [Carvedilol] came in with a hit_1 in the data set on OC43 (10 μM drug, repeat #1) of 1. The hit_2 with OC43 (10 μM drug, repeat #2) is recorded as 1. Further, in the data set on OC43 (setting [1]), the activity at 10 µM was 24.6%. Further, the activity at 10 µM in the data set with OC43 (setting [2]) was found to be 20.1%. Besides, the activity at 10 µM in the data set on OC43 (setting [3]) is 29.1%. In the data set on A549-mRuby cells, the “Growth_1: number of cells at day 4 divided by number of cells at day 0” value is on record as 4.5, the toxic_1 amounted to 0, the “Growth_2: number of cells at day 4 divided by number of cells at day 0” value turned out to be 3.1 and the toxic_2 came out at 0.
Regarding `CN(C)CCC=C1c2ccccc2C=Cc2ccccc21` [Cyclobenzaprine HCl], the hit_1 in the data set on OC43 (10 μM drug, repeat #1) worked out at 1. The same molecule yielded a hit_2 in the data set on OC43 (10 μM drug, repeat #2) of 1. Further, the activity at 10 µM with OC43 (setting [1]) was found to be 46.5%. For the same molecule, the activity at 10 µM with OC43 (setting [2]) stood at 45.2%. The activity at 10 µM in the data set with OC43 (setting [3]) came out at 47.7%. Also, in the data set on A549-mRuby cells, the “Growth_1: number of cells at day 4 divided by number of cells at day 0” value is reported as 3.3, the toxic_1 came out at 0, the “Growth_2: number of cells at day 4 divided by number of cells at day 0” value is listed as 2.1 and the toxic_2 is listed as 0.
`CN(C)CCC=C1c2ccccc2COc2ccccc21` [Doxepin HCl] displayed a hit_1 with OC43 (10 μM drug, repeat #1) of 1. In the data set with OC43 (10 μM drug, repeat #2), this molecule had a hit_2 of 1. The activity at 10 µM in the data set on OC43 (setting [1]) came to 32.6%. Moreover, the activity at 10 µM in the data set with OC43 (setting [2]) worked out at 29.2%. The activity at 10 µM with OC43 (setting [3]) worked out at 36.1%. In the data set with A549-mRuby cells, the “Growth_1: number of cells at day 4 divided by number of cells at day 0” value turned out to be 4.9, the toxic_1 came out at 0, the “Growth_2: number of cells at day 4 divided by number of cells at day 0” value is on record as 5.7 and the toxic_2 is listed as 0.
In the case of `OCc1cc(C(O)CNCCCCCCOCCCCc2ccccc2)ccc1O` (stereo not shown) [Salmeterol Xinafoate], the hit_1 in the data set with OC43 (10 μM drug, repeat #1) came out at 1. Also, the hit_2 with OC43 (10 μM drug, repeat #2) was 1. Moreover, the activity at 10 µM in the data set with OC43 (setting [2]) is 39.3%. The activity at 10 µM with OC43 (setting [3]) was 20.4%. The activity at 10 µM in the data set on OC43 (read-out: OC43_mean) amounted to 29.9%. In the data set with A549-mRuby cells, the “Growth_1: number of cells at day 4 divided by number of cells at day 0” value came out at 2.9, the toxic_1 worked out at 0, the “Growth_2: number of cells at day 4 divided by number of cells at day 0” value is listed as 2.5 and the toxic_2 came out at 0.
In the data set on OC43 (10 μM drug, MOI 0.3, 4 days, OC43 staining normalized to no-drug controls, mean of the two screen repeats), `C[C@@H]1CCN(C(=O)CC#N)C[C@@H]1N(C)c1ncnc2[nH]ccc12.O=C(O)CC(O)(CC(=O)O)C(=O)O` [Tofacitinib (CP-690550) Citrate] yielded an OC43_mean of 58.5%. In addition, the “OC43_1: % staining of OC43 in screen repeat #1” value in the data set with OC43 (setting [4]) is on record as 56.5%. Also, the “OC43_2: % staining of OC43 in screen repeat #2” value in the data set with OC43 (setting [5]) stood at 60.4%. Further, in the data set with OC43 (10 μM drug, repeat #1), the hit_1 was 1. For the same molecule, the hit_2 in the data set on OC43 (10 μM drug, repeat #2) is listed as 1. Also, in the data set with A549-mRuby cells, the “Growth_1: number of cells at day 4 divided by number of cells at day 0” value came out at 4.8, the toxic_1 was 0, the “Growth_2: number of cells at day 4 divided by number of cells at day 0” value came to 4.7 and the toxic_2 was determined as 0.
In turn, `CNCCCN1c2ccccc2CCc2ccccc21` [Desipramine Hydrochloride] yielded a hit_1 in the data set on OC43 (10 μM drug, repeat #1) of 1. In the data set with OC43 (10 μM drug, repeat #2), this molecule came in with a hit_2 of 1. The activity at 10 µM in the data set with OC43 (setting [1]) was determined as 21.8%. The activity at 10 µM with OC43 (setting [2]) was 20%. Further, the activity at 10 µM with OC43 (setting [3]) worked out at 23.7%. In the data set with A549-mRuby cells, the “Growth_1: number of cells at day 4 divided by number of cells at day 0” value worked out at 4.4, the toxic_1 was 0, the “Growth_2: number of cells at day 4 divided by number of cells at day 0” value is recorded as 3.9 and the toxic_2 was found to be 0.
Turning to `Cc1cc(C(C)(C)C)cc(C)c1CC1=NCCN1` [Xylometazoline HCl], the hit_1 in the data set with OC43 (10 μM drug, repeat #1) was found to be 1. This molecule registered a hit_2 in the data set on OC43 (10 μM drug, repeat #2) of 1. For the same molecule, in the data set with OC43 (setting [1]), the activity at 10 µM turned out to be 49.7%. The activity at 10 µM with OC43 (setting [2]) stood at 54%. In addition, the activity at 10 µM with OC43 (setting [3]) came out at 45.4%. Besides, in the data set with A549-mRuby cells, the “Growth_1: number of cells at day 4 divided by number of cells at day 0” value worked out at 5.4, the toxic_1 was 0, the “Growth_2: number of cells at day 4 divided by number of cells at day 0” value was found to be 5.7 and the toxic_2 was determined as 0.
The molecule `CC(C)c1nc(CN(C)C(=O)N[C@@H](CCN2CCOCC2)C(=O)N[C@H](CC[C@H](Cc2ccccc2)NC(=O)OCc2cncs2)Cc2ccccc2)cs1` [Cobicistat (GS-9350), Cobicistat] returned a hit_1 with OC43 (10 μM drug, repeat #1) of 1. In addition, the hit_2 with OC43 (10 μM drug, repeat #2) is reported as 1. Also, the activity at 10 µM in the data set on OC43 (setting [1]) worked out at 21.8%. The activity at 10 µM in the data set on OC43 (setting [2]) is 23%. Besides, in the data set on OC43 (setting [3]), the activity at 10 µM came to 20.7%. Further, in the data set with A549-mRuby cells, the “Growth_1: number of cells at day 4 divided by number of cells at day 0” value was 4.9, the toxic_1 came out at 0, the “Growth_2: number of cells at day 4 divided by number of cells at day 0” value is on record as 5.3 and the toxic_2 came to 0.
As to `CC[C@H]1OC(=O)[C@H](C)[C@@H](O[C@H]2C[C@@](C)(OC)[C@@H](O)[C@H](C)O2)[C@H](C)[C@@H](O[C@@H]2O[C@H](C)C[C@H](N(C)C)[C@H]2O)[C@](C)(O)C[C@@H](C)CN(C)[C@H](C)[C@@H](O)[C@]1(C)O` [Azithromycin Dihydrate], the hit_1 with OC43 (10 μM drug, repeat #1) amounted to 1. Further, the hit_2 in the data set with OC43 (10 μM drug, repeat #2) turned out to be 1. Further, the activity at 10 µM with OC43 (setting [1]) is 18.2%; with OC43 (setting [2]), 20.5%; in the data set with OC43 (setting [3]) it was 15.9%. The toxic_1 in the data set with A549-mRuby cells was determined as 0. Further, in the data set on A549-mRuby cells (Dihydrate), the “Growth_1: number of cells at day 4 divided by number of cells at day 0” value was determined as 5.4. This molecule also gave a toxic_2 in the data set on A549-mRuby cells of 0. Further, the “Growth_2: number of cells at day 4 divided by number of cells at day 0” value in the data set on A549-mRuby cells (Dihydrate) was 5.0.
For `CCOC(=O)N[C@@H]1CC[C@@H]2[C@@H](C1)C[C@H]1C(=O)O[C@H](C)[C@H]1[C@H]2/C=C/c1ccc(-c2cccc(F)c2)cn1` [Vorapaxar], in the data set with OC43 (10 μM drug, repeat #1), the hit_1 is 1. For the same molecule, the hit_2 with OC43 (10 μM drug, repeat #2) is on record as 1. In the data set with OC43 (setting [1]), the activity at 10 µM turned out to be 50.9%. Further, the activity at 10 µM in the data set with OC43 (setting [2]) is 53.5%. Further, the activity at 10 µM in the data set on OC43 (setting [3]) is 48.3%. In addition, in the data set on A549-mRuby cells, the “Growth_1: number of cells at day 4 divided by number of cells at day 0” value was determined as 4.4, the toxic_1 is on record as 0, the “Growth_2: number of cells at day 4 divided by number of cells at day 0” value worked out at 4.1 and the toxic_2 amounted to 0.
With `CCN(CC)CCCC(C)Nc1ccnc2cc(Cl)ccc12` (stereo not shown) [Chloroquine Phosphate], the hit_1 in the data set on OC43 (10 μM drug, repeat #1) turned out to be 1. Besides, in the data set on OC43 (10 μM drug, repeat #2), the hit_2 is on record as 1. Further, the activity at 10 µM in the data set on OC43 (setting [2]) amounted to 11.3%; in the data set with OC43 (setting [3]), 13.1%; in the data set with OC43 (read-out: OC43_mean), 12.2%. In the data set with A549-mRuby cells, this molecule returned a toxic_1 of 0. Further, the toxic_2 in the data set with A549-mRuby cells is on record as 0.
Regarding Dimemorfan phosphate, the OC43_mean in the data set on OC43 turned out to be 33.0%. Further, the “OC43_1: % staining of OC43 in screen repeat #1” value with OC43 (setting [4]) is 39.7%. Further, the “OC43_2: % staining of OC43 in screen repeat #2” value in the data set with OC43 (setting [5]) came to 26.2%. Besides, the hit_1 with OC43 (10 μM drug, repeat #1) worked out at 1. This molecule came in with a hit_2 in the data set on OC43 (10 μM drug, repeat #2) of 1. In addition, in the data set on A549-mRuby cells, the “Growth_1: number of cells at day 4 divided by number of cells at day 0” value stood at 6.0, the toxic_1 worked out at 0, the “Growth_2: number of cells at day 4 divided by number of cells at day 0” value amounted to 5.4 and the toxic_2 was 0.
